Reference: US7335771B2, “Quinacridone derivatives as labelling reagents for fluorescence detection of biological materials” (GE Healthcare UK Limited, priority 2001, dated 2008)
Where a name gives a salt, the structure may show the parent alone.

Legend:
Type in all cases: physicochemical
[1] = Fluorescence lifetime, time-correlated single photon counting (excitation 500 nm, detection 550 nm); conditions: excited at 500 nm, detection at 550 nm
Procedure: FIG. 2 is a plot showing the fluorescence lifetimes of certain dyes according to the invention. Fluorescence lifetimes of a range of dyes were determined by a time-correlated single photon counting technique using an Edinburgh Instruments FL900 CDT Time-Resolved Fluorometer. Samples were excited at 500 nm using a hydrogen-filled flashlamp. Detection was at 550 nm.

[2] = Fluorescence lifetimes of dye and its ovalbumin conjugate in PBS
Procedure: The fluorescence lifetimes of 6-{7,14-dioxo-2,9-disulpho-7,14-dihydro-12H-quino[2,3-b]acridin-5-yl}hexanoic acid and its conjugate with ovalbumin (Conjugate A) was determined in PBS.

[3] = Fluorescence of the dinitro dye in solvents; conditions: in DMF, DMSO and methanol

Structure (SMILES): CCOC(=O)CCCCCn1c2ccc(Cl)cc2c(=O)c2cc3c(cc21)c(=O)c1cc(Cl)ccc1n3CCCCCC(=O)OCC [6-{2,9-Dichloro-12-(5-carboxypentyl)-7,14-dioxo-7,14-dihydro-12H-quino[2,3-b]acridin-5-yl}hexanoic acid, diethyl ester]
- Lifetime ([1]; solvent MeOH): 22.3 nsec

Structure (SMILES): CCOC(=O)CCCCCn1c2ccc(OC)cc2c(=O)c2cc3c(cc21)c(=O)c1cc(OC)ccc1n3CCCCCC(=O)OCC [6-{2,9-Dimethoxy-12-(5-carboxypentyl)-7,14-dioxo-7,14-dihydro-12H-quino[2,3-b]acridin-5-yl}hexanoic acid, diethyl ester]
- Lifetime ([1]; solvent EtOH): 14.0 nsec

Structure (SMILES): CCOC(=O)CCCCCn1c2ccc(C)cc2c(=O)c2cc3c(cc21)c(=O)c1cc(C)ccc1n3CCCCCC(=O)OCC [6-{2,9-dimethyl-12-(5-carboxypentyl)-7,14-dioxo-7,14-dihydro-12H-quino[2,3-b]acridin-5-yl}hexanoic acid, diethyl ester]
- Lifetime ([1]; solvent MeOH): 21.9 nsec

Structure (SMILES): O=c1c2cc(S(=O)(=O)O)ccc2[nH]c2cc3c(=O)c4cc(S(=O)(=O)O)ccc4[nH]c3cc12 [2,9-Quinacridone disulphonic acid, Quinacridone-2,9-disulphonic acid, (di-potassium salt)]
- Lifetime ([1]; solvent water): 20.6 nsec

Structure (SMILES): CCCCCCn1c2ccc(Br)cc2c(=O)c2cc3c(cc21)c(=O)c1cc(Br)ccc1n3CCCCCC [2,9-Dibromo-5,12-di-n-hexylquinacridone, 2,9-dibromo-5,12-dihexylquinacridone]
- Lifetime ([1]; solvent CH2Cl2/MeOH): 16.9 nsec

Structure (SMILES): O=c1c2cc3[nH]c4c(S(=O)(=O)O)cc(S(=O)(=O)O)cc4c(=O)c3cc2[nH]c2c(S(=O)(=O)O)cc(S(=O)(=O)O)cc12 [Quinacridone-2,4,9,11-tetrasulphonic acid (tetra-potassium salt)]
- Lifetime ([1]; solvent water): 22.1 nsec

Structure (SMILES): O=C(O)CCCCCn1c2ccc(S(=O)(=O)O)cc2c(=O)c2cc3[nH]c4ccc(S(=O)(=O)O)cc4c(=O)c3cc21 [6-{7,14-Dioxo-2,9-disulpho-7,14-dihydro-12H-quino[2,3-b]acridin-5-yl}hexanoic acid]
- Lifetime (nsec) [2]: 20.1 nsec
- Lifetime ([1]; solvent water): 20.1 nsec

Structure (SMILES): CCCCCCn1c2ccccc2c(=O)c2cc3c(cc21)c(=O)c1ccccc1n3CCCCCC [5,12-Di-n-hexylquinacridone, 5,12-Dihexylquinacridone]
- Lifetime ([1]; solvent CH2Cl2/MeOH): 26.5 nsec

Structure (SMILES): CCOC(=O)CCCCCn1c2ccc(Br)cc2c(=O)c2cc3c(cc21)c(=O)c1cc(Br)ccc1n3CCCCCC(=O)OCC [6-{2,9-dibromo-12-(5-carboxypentyl)-7,14-dioxo-7,14-dihydro-12H-quino[2,3-b]acridin-5-yl}hexanoic acid, diethyl ester]
- Lifetime ([1]; solvent water): 18.0 nsec

Structure (SMILES): O=c1c2ccccc2[nH]c2cc3c(=O)c4ccccc4[nH]c3cc12 [Quinacridone]
- Lifetime ([1]; solvent DMSO): 22 nsec

Structure (SMILES): CCOC(=O)CCCCCn1c2ccc([N+](=O)[O-])cc2c(=O)c2cc3c(cc21)c(=O)c1cc([N+](=O)[O-])ccc1n3CCCCCC(=O)OCC [6-{2,9-Dinitro-12-(5-carboxypentyl)-7,14-dioxo-7,14-dihydro-12H-quino[2,3-b]acridin-5-yl}hexanoic acid, diethyl ester]
- Fluorescence [3]: very weak or is non-fluorescent
- Lifetime ([1]; solvent CH2Cl2): 17.0 nsec

Structure (SMILES): CCn1c2ccc(S(=O)(=O)O)cc2c(=O)c2cc3c(cc21)c(=O)c1cc(S(=O)(=O)O)ccc1n3CCCCCC(=O)O [6-{12-ethyl-7,14-dioxo-2,9-disulpho-7,14-dihydro-12H-quino[2,3-b]acridin-5-yl}hexanoic acid]
- Lifetime ([1]; solvent water): 22.7 nsec

Structure (SMILES): CCCCCCn1c2ccccc2c(=O)c2cc3c(cc21)c(=O)c1cc(Br)ccc1n3CCCCCC [2-Bromo-5,12-di-n-hexylquinacridone, 2-Bromo-5,12-dihexylquinacridone]
- Lifetime ([1]; solvent CH2Cl2/MeOH): 20.4 nsec

Structure (SMILES): CCOC(=O)CCCCCn1c2ccc(F)cc2c(=O)c2cc3c(cc21)c(=O)c1cc(F)ccc1n3CCCCCC(=O)OCC [6-{2,9-Difluoro-12-(5-carboxypentyl)-7,14-dioxo-7,14-dihydro-12H-quino[2,3-b]acridin-5-yl}hexanoic acid, diethyl ester]
- Lifetime ([1]; solvent MeOH): 21.4 nsec
